Assay results: PubChem BioAssay AID1845213 (Molecular Pharmacology Branch, DTP, NCI, 2023)
“And” between values parts separate entries of the source, which are not always exact repeats. Equal values may be shown once.

Tested on: NCI-H841 complex tumor spheroid viability
Test: Anticancer human tumor NCI-H841 cell line growth inhibition;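 note: spheroids exposed to compounds for 7 days before readout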;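 for viability, T/C: 100% = DMSO vehicle control wells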
Settings: for viability, T/C: stronger effect = lower value
Procedure, shortened: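 Complex spheroids of malignant cells with endothelial cells and mesenchymal stem cells; agents alone or combined, from near clinical Cmax (or 10 microM if unknown) down in half-log steps, 0.25% DMSO final.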

[1] = curve of first compound, second compound 0.003 µM
[2] = second compound 0.003 µM, first compound 0.00949 µM
[3] = second compound 0.003 µM, first compound 0.03 µM
[4] = second compound 0.003 µM, first compound 0.0949 µM
[5] = second compound 0.003 µM, first compound 0.3 µM
[6] = second compound 0.003 µM, first compound 0.949 µM
[7] = second compound 0.003 µM, first compound 3 µM
[8] = curve of first compound, second compound 0.00949 µM
[9] = curve of first compound, second compound 0.03 µM
[10] = curve of first compound, second compound 0.0949 µM
[11] = curve of first compound, second compound 0.3 µM
[12] = second compound 0.003 µM, first compound 0.0316 µM
[13] = second compound 0.003 µM, first compound 0.1 µM
[14] = second compound 0.003 µM, first compound 0.316 µM
[15] = second compound 0.003 µM, first compound 1 µM
[16] = second compound 0.003 µM, first compound 3.16 µM
[17] = second compound 0.003 µM, first compound 10 µM
[18] = second compound 0.00949 µM, first compound 0.0316 µM
[19] = second compound 0.00949 µM, first compound 0.1 µM
[20] = second compound 0.00949 µM, first compound 0.316 µM
[21] = second compound 0.00949 µM, first compound 1 µM
[22] = second compound 0.00949 µM, first compound 3.16 µM
[23] = second compound 0.00949 µM, first compound 10 µM
[24] = second compound 0.03 µM, first compound 0.0316 µM
[25] = second compound 0.03 µM, first compound 0.1 µM
[26] = second compound 0.03 µM, first compound 0.316 µM
[27] = second compound 0.03 µM, first compound 1 µM
[28] = second compound 0.03 µM, first compound 3.16 µM
[29] = second compound 0.03 µM, first compound 10 µM
[30] = second compound 0.0949 µM, first compound 0.0316 µM
[31] = second compound 0.0949 µM, first compound 0.1 µM
[32] = second compound 0.0949 µM, first compound 0.316 µM
[33] = second compound 0.0949 µM, first compound 1 µM
[34] = second compound 0.0949 µM, first compound 3.16 µM
[35] = second compound 0.0949 µM, first compound 10 µM
[36] = second compound 0.3 µM, first compound 0.0316 µM
[37] = second compound 0.3 µM, first compound 0.1 µM
[38] = second compound 0.3 µM, first compound 0.316 µM
[39] = second compound 0.3 µM, first compound 1 µM
[40] = second compound 0.3 µM, first compound 3.16 µM
[41] = second compound 0.3 µM, first compound 10 µM

Compound: CNCc1ccc(-c2cc(-c3nc(-c4ccc(S(=O)(=O)C(C)C)cc4)cnc3N)on2)cc1 + COc1cc2c(cc1O)CCNC21CSC2c3c(OC(C)=O)c(C)c4c(c3C(COC1=O)N1C(O)C3Cc5cc(C)c(OC)c(O)c5C(C21)N3C)OCO4
- IC50 (curve of first compound, second compound 30 pM): 205 nM
- IC50 (curve of first compound, second compound 94.9 pM): 136 nM
- IC50 (curve of first compound, second compound 0.0003 µM): < 9.49 nM
- IC50 (curve of first compound, second compound 0.000949 µM): < 9.49 nM
- IC50 [1]: < 9.49 nM
- viability, T/C (second compound 30 pM, first compound 0.00949 µM): 97.6%
- viability, T/C (second compound 30 pM, first compound 0.03 µM): 99.6%
- viability, T/C (second compound 30 pM, first compound 0.0949 µM): 86.8%
- viability, T/C (second compound 30 pM, first compound 0.3 µM): 31.6%
- viability, T/C (second compound 30 pM, first compound 0.949 µM): 7.14%
- viability, T/C (second compound 30 pM, first compound 3 µM): 1.78%
- viability, T/C (second compound 94.9 pM, first compound 0.00949 µM): 93.8%
- viability, T/C (second compound 94.9 pM, first compound 0.03 µM): 92.6%
- viability, T/C (second compound 94.9 pM, first compound 0.0949 µM): 66.2%
- viability, T/C (second compound 94.9 pM, first compound 0.3 µM): 13.6%
- viability, T/C (second compound 94.9 pM, first compound 0.949 µM): 2.49%
- viability, T/C (second compound 94.9 pM, first compound 3 µM): 1.05%
- viability, T/C (second compound 0.0003 µM, first compound 0.00949 µM): 44.8%
- viability, T/C (second compound 0.0003 µM, first compound 0.03 µM): 28.3%
- viability, T/C (second compound 0.0003 µM, first compound 0.0949 µM): 7.38%
- viability, T/C (second compound 0.0003 µM, first compound 0.3 µM): 1.78%
- viability, T/C (second compound 0.0003 µM, first compound 0.949 µM): 1.69%
- viability, T/C (second compound 0.0003 µM, first compound 3 µM): 0.41%
- viability, T/C (second compound 0.000949 µM, first compound 0.00949 µM): 2.86%
- viability, T/C (second compound 0.000949 µM, first compound 0.03 µM): 2.26%
- viability, T/C (second compound 0.000949 µM, first compound 0.0949 µM): 1.25%
- viability, T/C (second compound 0.000949 µM, first compound 0.3 µM): 0.59%
- viability, T/C (second compound 0.000949 µM, first compound 0.949 µM): 0.5%
- viability, T/C (second compound 0.000949 µM, first compound 3 µM): 0.09%
- viability, T/C [2]: 0.1%
- viability, T/C [3]: 0.1%
- viability, T/C [4]: 0.09%
- viability, T/C [5]: 0.1%
- viability, T/C [6]: 0.09%
- viability, T/C [7]: 0.15%

Compound: CC1COCCN1c1cc(-c2ccnn2C)c2ccnc(-c3ccn[nH]3)c2n1 (centres undefined) + CC[C@@]1(O)C(=O)OCc2c1cc1n(c2=O)Cc2cc3c(CN(C)C)c(O)ccc3nc2-1
- IC50 [1]: < 31.6 nM
- IC50 [8]: < 31.6 nM
- IC50 [9]: < 31.6 nM
- IC50 [10]: < 31.6 nM
- IC50 [11]: < 31.6 nM
- viability, T/C [12]: 8.47%
- viability, T/C [13]: 2.38%
- viability, T/C [14]: 1.1%
- viability, T/C [15]: 1.26%
- viability, T/C [16]: 1.27%
- viability, T/C [17]: 1.76%
- viability, T/C [18]: 1.08%
- viability, T/C [19]: 0.71%
- viability, T/C [20]: 0.73%
- viability, T/C [21]: 0.86%
- viability, T/C [22]: 1.2%
- viability, T/C [23]: 1.56%
- viability, T/C [24]: 0.77%
- viability, T/C [25]: 0.57%
- viability, T/C [26]: 0.65%
- viability, T/C [27]: 0.82%
- viability, T/C [28]: 1.08%
- viability, T/C [29]: 1.32%
- viability, T/C [30]: 0.39%
- viability, T/C [31]: 0.37%
- viability, T/C [32]: 0.5%
- viability, T/C [33]: 0.56%
- viability, T/C [34]: 0.78%
- viability, T/C [35]: 1.13%
- viability, T/C [36]: 0.42%
- viability, T/C [37]: 0.41%
- viability, T/C [38]: 0.4%
- viability, T/C [39]: 0.5%
- viability, T/C [40]: 0.54%
- viability, T/C [41]: 0.72%

Compound: COc1ccc([C@@H](O)c2cc(-c3ncnc4cc(N5CCOCC5)ccc34)c(F)cc2Cl)nn1 + CC[C@@]1(O)C(=O)OCc2c1cc1n(c2=O)Cc2cc3c(CN(C)C)c(O)ccc3nc2-1
- IC50 [1]: 3830 nM
- IC50 [8]: 1220 nM
- IC50 [9]: < 31.6 nM
- IC50 [10]: < 31.6 nM
- IC50 [11]: < 31.6 nM
- viability, T/C [12]: 95.6%
- viability, T/C [13]: 95.9%
- viability, T/C [14]: 94.9%
- viability, T/C [15]: 86.5%
- viability, T/C [16]: 58%
- viability, T/C [17]: 10.6%
- viability, T/C [18]: 83.1%
- viability, T/C [19]: 83.6%
- viability, T/C [20]: 76.3%
- viability, T/C [21]: 52.6%
- viability, T/C [22]: 27.9%
- viability, T/C [23]: 6.04%
- viability, T/C [24]: 4.02%
- viability, T/C [25]: 2.47%
- viability, T/C [26]: 1.69%
- viability, T/C [27]: 1.88%
- viability, T/C [28]: 1.8%
- viability, T/C [29]: 1.21%
- viability, T/C [30]: 1.56%
- viability, T/C [31]: 1.55%
- viability, T/C [32]: 1.96%
- viability, T/C [33]: 1.31%
- viability, T/C [34]: 0.92%
- viability, T/C [35]: 0.89%
- viability, T/C [36]: 1.74%
- viability, T/C [37]: 1.64%
- viability, T/C [38]: 1.32%
- viability, T/C [39]: 1.22%
- viability, T/C [40]: 0.55%
- viability, T/C [41]: 0.42%

Compound: Cn1nnc2c(C(N)=O)ncn2c1=O
- viability, T/C (compound 1 µM): 101% [middle of 9 runs]
- viability, T/C (compound 3.16 µM): 101% [middle of 10 runs]
- viability, T/C (compound 10 µM): 101% [middle of 10 runs]
- IC50 (compound alone, run of 11/07/2019): > 100000 nM and 17400 nM

Compound: CNCc1ccc(-c2cc(-c3nc(-c4ccc(S(=O)(=O)C(C)C)cc4)cnc3N)on2)cc1 + CC[C@@]1(O)C(=O)OCc2c1cc1n(c2=O)Cc2cc3c(CN(C)C)c(O)ccc3nc2-1
- IC50 [1]: 56.1 nM
- IC50 [8]: < 9.49 nM
- IC50 [9]: < 9.49 nM
- IC50 [10]: < 9.49 nM
- IC50 [11]: < 9.49 nM
- viability, T/C [2]: 89.3%
- viability, T/C [3]: 78.7%
- viability, T/C [4]: 25.8%
- viability, T/C [5]: 5.41%
- viability, T/C [6]: 1.29%
- viability, T/C [7]: 0.44%
- viability, T/C (second compound 0.00949 µM, first compound 0.00949 µM): 49.2%
- viability, T/C (second compound 0.00949 µM, first compound 0.03 µM): 35.6%
- viability, T/C (second compound 0.00949 µM, first compound 0.0949 µM): 7.71%
- viability, T/C (second compound 0.00949 µM, first compound 0.3 µM): 1.95%
- viability, T/C (second compound 0.00949 µM, first compound 0.949 µM): 1%
- viability, T/C (second compound 0.00949 µM, first compound 3 µM): 0.31%
- viability, T/C (second compound 0.03 µM, first compound 0.00949 µM): 1.53%
- viability, T/C (second compound 0.03 µM, first compound 0.03 µM): 4.09%
- viability, T/C (second compound 0.03 µM, first compound 0.0949 µM): 1.25%
- viability, T/C (second compound 0.03 µM, first compound 0.3 µM): 1.64%
- viability, T/C (second compound 0.03 µM, first compound 0.949 µM): 0.71%
- viability, T/C (second compound 0.03 µM, first compound 3 µM): 0.17%
- viability, T/C (second compound 0.0949 µM, first compound 0.00949 µM): 1.32%
- viability, T/C (second compound 0.0949 µM, first compound 0.03 µM): 3.66%
- viability, T/C (second compound 0.0949 µM, first compound 0.0949 µM): 0.92%
- viability, T/C (second compound 0.0949 µM, first compound 0.3 µM): 0.89%
- viability, T/C (second compound 0.0949 µM, first compound 0.949 µM): 0.76%
- viability, T/C (second compound 0.0949 µM, first compound 3 µM): 0.15%
- viability, T/C (second compound 0.3 µM, first compound 0.00949 µM): 1.45%
- viability, T/C (second compound 0.3 µM, first compound 0.03 µM): 1.41%
- viability, T/C (second compound 0.3 µM, first compound 0.0949 µM): 1.07%
- viability, T/C (second compound 0.3 µM, first compound 0.3 µM): 0.61%
- viability, T/C (second compound 0.3 µM, first compound 0.949 µM): 2.25%
- viability, T/C (second compound 0.3 µM, first compound 3 µM): 0.16%

Compound: Cn1ncnc1[C@H]1c2n[nH]c(=O)c3cc(F)cc(c23)N[C@@H]1c1ccc(F)cc1
- viability, T/C (compound 0.00949 µM): 90.1% and 29.7% and 97.4%
- viability, T/C (compound 0.03 µM): 85.4% and 30.6% and 90.1%
- viability, T/C (compound 0.0949 µM): 80.3% and 9.88% and 89.6%
- viability, T/C (compound 0.3 µM): 55.7% and 62.9% and 83.3%
- viability, T/C (compound 3 µM): 7.92% and 2.5% and 1.44%
